Consider six compounds from PMC2358886, “Evolution of pharmacologic specificity in the pregnane X receptor” (BMC Evolutionary Biology, 2008).

Where two headings read alike, the source gives them in different places.

In data set [1] the target is T1, rat PXR (Rattus norvegicus, UniProt Q9R1A7).
T1 sequence (Q9R1A7 1-431): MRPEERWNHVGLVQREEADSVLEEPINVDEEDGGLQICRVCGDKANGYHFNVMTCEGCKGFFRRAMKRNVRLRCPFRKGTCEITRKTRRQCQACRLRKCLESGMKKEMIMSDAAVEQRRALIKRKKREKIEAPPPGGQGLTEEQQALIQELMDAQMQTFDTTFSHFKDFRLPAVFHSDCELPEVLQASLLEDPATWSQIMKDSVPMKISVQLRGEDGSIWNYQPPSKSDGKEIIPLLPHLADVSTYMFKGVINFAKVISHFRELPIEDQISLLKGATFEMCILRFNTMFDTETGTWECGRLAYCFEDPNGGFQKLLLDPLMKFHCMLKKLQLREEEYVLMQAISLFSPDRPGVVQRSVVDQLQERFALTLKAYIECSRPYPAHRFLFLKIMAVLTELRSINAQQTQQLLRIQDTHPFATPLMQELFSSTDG
The experiment in a line: cell-based.

For data set [2], the target named is T1, rat PXR. As to conditions: for Rat PXR efficacy, ε: relative to 20 μM pregnenolone 16α-carbonitrile, assigned an efficacy of 1.0.
The target of a further data set is T2, rabbit PXR (Oryctolagus cuniculus, UniProt Q9TU02).
T2 sequence (Q9TU02 1-411): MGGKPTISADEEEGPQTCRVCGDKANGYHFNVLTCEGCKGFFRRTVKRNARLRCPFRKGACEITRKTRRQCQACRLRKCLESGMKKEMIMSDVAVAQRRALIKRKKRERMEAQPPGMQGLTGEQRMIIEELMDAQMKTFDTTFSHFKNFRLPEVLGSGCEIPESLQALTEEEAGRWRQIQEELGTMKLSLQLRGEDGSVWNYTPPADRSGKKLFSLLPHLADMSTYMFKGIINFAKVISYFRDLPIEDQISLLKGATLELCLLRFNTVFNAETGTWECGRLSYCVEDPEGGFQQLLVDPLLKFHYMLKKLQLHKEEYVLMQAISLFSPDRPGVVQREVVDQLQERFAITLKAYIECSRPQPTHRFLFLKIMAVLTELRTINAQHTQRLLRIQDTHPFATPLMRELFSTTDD
The data set can be described thus: PXR activation luciferase reporter assay, rabbit PXR. As to conditions: for Rabbit PXR efficacy, ε: relative to 50 μM 5α-pregnan-3,20-dione, assigned an efficacy of 1.0. (Reporter assays use an easily measured gene product as a stand-in for the process of interest.)

The target of data set [3] is T3, chicken PXR (Gallus gallus, UniProt Q9DFH3).
T3 sequence (Q9DFH3 1-391): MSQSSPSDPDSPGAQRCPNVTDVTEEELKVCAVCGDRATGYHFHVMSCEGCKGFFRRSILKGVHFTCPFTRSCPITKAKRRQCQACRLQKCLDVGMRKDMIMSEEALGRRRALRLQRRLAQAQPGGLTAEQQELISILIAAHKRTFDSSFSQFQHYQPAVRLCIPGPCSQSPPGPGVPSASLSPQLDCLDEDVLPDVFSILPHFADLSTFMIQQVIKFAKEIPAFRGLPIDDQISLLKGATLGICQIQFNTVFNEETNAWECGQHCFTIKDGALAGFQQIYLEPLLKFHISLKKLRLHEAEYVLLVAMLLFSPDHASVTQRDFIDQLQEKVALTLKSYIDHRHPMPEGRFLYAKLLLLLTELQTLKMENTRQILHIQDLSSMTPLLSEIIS

The target in data set [4] is T4, mouse PXR (Mus musculus, UniProt O54915).
T4 sequence (O54915 1-431): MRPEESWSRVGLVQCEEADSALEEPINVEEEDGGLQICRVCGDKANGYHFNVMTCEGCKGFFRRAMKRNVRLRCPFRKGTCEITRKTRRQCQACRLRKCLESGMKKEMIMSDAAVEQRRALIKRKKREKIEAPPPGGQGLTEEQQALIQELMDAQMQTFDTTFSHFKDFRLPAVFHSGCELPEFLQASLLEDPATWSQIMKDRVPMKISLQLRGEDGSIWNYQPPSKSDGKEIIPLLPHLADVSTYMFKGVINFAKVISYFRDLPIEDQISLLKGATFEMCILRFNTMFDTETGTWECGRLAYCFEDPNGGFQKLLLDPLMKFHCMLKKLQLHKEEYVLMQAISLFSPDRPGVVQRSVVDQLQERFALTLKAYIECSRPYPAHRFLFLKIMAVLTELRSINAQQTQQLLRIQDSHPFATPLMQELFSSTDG

In data set [5] the target is T5, human PXR (Homo sapiens, UniProt O75469).
T5 sequence (O75469 1-434): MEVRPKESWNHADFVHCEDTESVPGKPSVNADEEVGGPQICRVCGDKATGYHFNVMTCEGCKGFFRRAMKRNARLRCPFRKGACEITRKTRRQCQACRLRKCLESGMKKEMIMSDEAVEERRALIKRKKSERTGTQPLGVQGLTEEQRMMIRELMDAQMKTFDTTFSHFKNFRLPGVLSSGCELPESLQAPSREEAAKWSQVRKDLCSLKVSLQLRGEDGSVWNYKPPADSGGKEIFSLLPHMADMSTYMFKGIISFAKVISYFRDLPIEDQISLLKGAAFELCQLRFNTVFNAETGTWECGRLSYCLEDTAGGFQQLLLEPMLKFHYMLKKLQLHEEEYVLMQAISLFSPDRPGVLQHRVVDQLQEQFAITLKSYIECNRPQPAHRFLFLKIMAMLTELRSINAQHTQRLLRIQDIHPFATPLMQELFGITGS
The data set can be described thus: PXR activation luciferase reporter assay, human PXR in HepG2-NTCP cells. As to conditions: hPXR Activity.

The target of data set [6] is T6, zebrafish PXR (Danio rerio, UniProt A5WYG8).
T6 sequence (A5WYG8 144-430): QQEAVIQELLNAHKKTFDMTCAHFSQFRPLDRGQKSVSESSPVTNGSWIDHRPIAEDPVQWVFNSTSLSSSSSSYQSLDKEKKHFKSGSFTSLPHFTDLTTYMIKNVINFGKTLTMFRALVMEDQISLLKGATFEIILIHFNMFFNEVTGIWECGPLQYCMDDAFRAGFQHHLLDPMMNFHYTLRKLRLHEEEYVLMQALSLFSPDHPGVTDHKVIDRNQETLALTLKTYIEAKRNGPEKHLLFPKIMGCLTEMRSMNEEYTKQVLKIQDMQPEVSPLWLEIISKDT

Data set [7] concerns the target T5, human PXR. Particulars: for hPXR Efficacy: human.
Data set [8] deals with T3, chicken PXR. The data set can be described thus: cell-based.
Data set [9] has as its target T4, mouse PXR. The experiment in a line: cell-based.
Data set [10] has as its target T6, zebrafish PXR. The data set can be described thus: cell-based.
Where [11] appears, read: -log(EC50), EC50 in molar units.
Where [12] appears, read: -log(EC50), EC50 in molar units, activation of human PXR.
The mark [13] stands for this setting: relative to 20 μM pregnenolone 16α-carbonitrile, assigned an efficacy of 1.0.

For `C[C@H](CCC(=O)O)[C@H]1CC[C@H]2[C@@H]3CC[C@@H]4C[C@H](O)CC[C@]4(C)[C@H]3C[C@H](O)[C@]12C` [BI008, Deoxycholic acid], the EC50 (as a rule, the concentration that produces a half-maximal response) on rat PXR [1] was 10 µM. Moreover, at rat PXR [2], the “Rat PXR efficacy, ε” value is listed as 0.32. For the same compound, at rabbit PXR, the EC50 is 36.3 µM and the “Rabbit PXR efficacy, ε” value is reported as 0.37. The “Chicken PXR Activity” value on chicken PXR [3] is listed as “No effect”. Moreover, at mouse PXR [4] (setting [11]), the “Mouse PXR Activity” value was “No effect”.

Turning to `CC(CCCC(CO)COS(=O)(=O)O)[C@H]1CCC2C3C(C[C@H](O)[C@@]21C)[C@@]1(C)CC[C@@H](O)C[C@@H]1C[C@H]3O` (stereo partly drawn) [BI036, 5β-Cholestan-3α,7α,12α,26-tetrol-27-sulfate], the EC50 on rat PXR [1] was 31.6 µM; on human PXR [5] (setting [12]), 25.7 µM; on rabbit PXR it was 81.3 µM; at chicken PXR [8] it was 30.9 µM; on mouse PXR [9] it was 16.6 µM; on zebrafish PXR [10], 43.7 µM. Further, the Toxicity result in the data set on HepG2 cells was “None”. In addition, the “Activation of zebrafish PXR (in words)” value at zebrafish PXR [6] (bile salts) is “activated”. For the same compound, the “zfPXR Efficacy” value at zebrafish PXR [6] (zebrafish) was 0.75. For the same compound, the “Activation of human PXR (in words)” value on human PXR [7] was “activated”. In addition, on rat PXR [2], the “Rat PXR efficacy, ε” value turned out to be 0.28. Also, the “Rabbit PXR efficacy, ε” value on rabbit PXR came out at 0.43. In addition, the “Chicken PXR efficacy, ε” value on chicken PXR [3] was found to be 0.61. In addition, the “Mouse PXR efficacy, ε” value on mouse PXR [4] (setting [13]) is 0.29.

With `CC(=O)[C@H]1CC[C@H]2[C@@H]3CC[C@@H]4CC(=O)CC[C@]4(C)[C@H]3CC[C@]12C` [PR2, 5β-Pregnan-3,20-dione], the concentration giving a half-maximal response (EC50) was 5.75 µM at rat PXR [1]; 2.57 µM on human PXR [5]; 12.6 µM at rabbit PXR; 2.57 µM on chicken PXR [8]; 4.37 µM on mouse PXR [9]; 0.832 µM on zebrafish PXR [10]. Moreover, the Toxicity result in the data set on HepG2 cells is “None”. Further, the “zfPXR Efficacy” value at zebrafish PXR [6] (zebrafish) worked out at 0.85. For the same compound, the “hPXR Efficacy” value on human PXR [7] is given as 0.97. Also, the “Chicken PXR efficacy, ε” value at chicken PXR [3] is listed as 5.59 (ε = 0.81). Also, the “Mouse PXR efficacy, ε” value at mouse PXR [4] (mouse) is recorded as 5.36 (ε = 0.84).

As for `CC(C)CCC[C@@H](C)[C@H]1CC[C@H]2[C@@H]3[C@H](O)C[C@@H]4C[C@H](O)CC[C@]4(C)[C@H]3C[C@H](O)[C@]12C` [BI023, 5β-Cholestan-3α,7α,12α-triol], the half-maximal effective concentration (EC50) is 2.24 µM at rat PXR [1], 3.89 µM on rabbit PXR, 1.29 µM on chicken PXR [8] and 1.41 µM on mouse PXR [9]. The “Rat PXR efficacy, ε” value at rat PXR [2] came out at 0.72. Further, the “Rabbit PXR efficacy, ε” value on rabbit PXR was 0.37. Moreover, the “Chicken PXR efficacy, ε” value at chicken PXR [3] is given as 0.27. Further, the “Mouse PXR efficacy, ε” value at mouse PXR [4] (setting [13]) came out at 1.23.

Regarding `C[C@H](CCC(=O)NCCS(=O)(=O)O)[C@H]1CC[C@H]2[C@@H]3[C@H](O)C[C@@H]4C[C@H](O)CC[C@]4(C)[C@H]3C[C@H](O)[C@]12C` [BI022, Taurocholic acid], the “Rat PXR Activity” value at rat PXR [2] (setting [11]) is recorded as “No effect”. On chicken PXR [3], the “Chicken PXR Activity” value was “No effect”. On mouse PXR [9], the EC50 is 85.1 µM.

For the compound `C[C@@]12CCC[C@H]1[C@@H]1CC[C@H]3C[C@H](O)CC[C@]3(C)[C@H]1CC2` [AN3, 5α-Androstan-3α-ol], in the data set on HepG2 cells, the Toxicity result was “None”. Besides, the EC50 is 6.31 µM at human PXR [5] (setting [12]), 4.17 µM on chicken PXR [8] and 4.57 µM on zebrafish PXR [10]. Besides, the “zfPXR Efficacy” value at zebrafish PXR [6] (relative to 20 μM 5α-androstan-3α-ol, assigned an efficacy of 1.0) worked out at 1.00. On human PXR [7], the “hPXR Efficacy” value is given as 0.5. Besides, at chicken PXR [3], the “Chicken PXR efficacy, ε” value amounted to 0.85.
